Source: paper PMC3956282, “Binding Stoichiometry of a Recombinant Selenophosphate Synthetase with One Synonymic Substitution E197D to a Fluorescent Nucleotide Analog of ATP, TNP-ATP” (Journal of Amino Acids, 2013)
pEC50: −log10 of the molar value.

Molecular target: T1, selenophosphate synthetase (SPS) (Escherichia coli, UniProt P16456, E197D)
T1 construct: gene selD; full-size selD from E. coli BL21-Gold (DE3), recombinant
Experiment: competitive displacement of TNP-ATP (fluorescence)
Format: binding

T1 sequence (P16456 whole entry E197D): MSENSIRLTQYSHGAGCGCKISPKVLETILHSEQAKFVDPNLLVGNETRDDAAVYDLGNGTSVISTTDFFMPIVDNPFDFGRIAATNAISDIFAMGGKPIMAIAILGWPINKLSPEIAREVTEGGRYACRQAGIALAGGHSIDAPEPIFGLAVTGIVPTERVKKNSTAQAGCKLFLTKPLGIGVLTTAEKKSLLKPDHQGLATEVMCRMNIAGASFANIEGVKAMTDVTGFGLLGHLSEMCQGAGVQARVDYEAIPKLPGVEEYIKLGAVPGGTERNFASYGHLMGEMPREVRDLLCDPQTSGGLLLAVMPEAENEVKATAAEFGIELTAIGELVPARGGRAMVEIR

Compound: Nc1ncnc2c1ncn2[C@@H]1O[C@H](COP(=O)(O)OP(=O)(O)OP(=O)(O)O)[C@@H](O)[C@H]1O [ATP]
- pEC50: 3.35
